Drawing on article doi:10.1101/2020.07.10.197525v1 (biorxiv, 2020), this text covers EC50 for 1 compound.

Molecules are shown by their SMILES.

One test has as its target GABAA α3β3γ2 (Rattus norvegicus, UniProt P18508+P20236+P63079). The experiment in a line: voltage clamp of Xenopus oocytes, potentiation of GABA-induced currents. Format: cell-based.
For another test, the target named is GABAA α3β2γ2 (Rattus norvegicus, UniProt P18508+P20236+P63138). Described as above. The format is cell-based.
Sequence of GABAA α3β2γ2 (P20236 29-493): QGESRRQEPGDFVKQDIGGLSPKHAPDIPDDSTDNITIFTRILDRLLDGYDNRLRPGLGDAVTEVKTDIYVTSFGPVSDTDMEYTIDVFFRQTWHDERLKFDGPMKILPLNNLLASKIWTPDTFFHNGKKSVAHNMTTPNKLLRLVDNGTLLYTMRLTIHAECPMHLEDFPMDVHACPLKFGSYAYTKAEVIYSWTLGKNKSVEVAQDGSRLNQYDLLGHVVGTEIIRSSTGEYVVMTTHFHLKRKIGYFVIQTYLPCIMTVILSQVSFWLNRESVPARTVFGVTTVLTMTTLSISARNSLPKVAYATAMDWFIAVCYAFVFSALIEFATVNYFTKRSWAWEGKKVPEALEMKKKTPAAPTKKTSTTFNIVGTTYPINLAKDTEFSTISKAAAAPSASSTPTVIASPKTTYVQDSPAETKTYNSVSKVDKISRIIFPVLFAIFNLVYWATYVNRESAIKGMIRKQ
Sequence of GABAA α3β2γ2 (P63138 26-474): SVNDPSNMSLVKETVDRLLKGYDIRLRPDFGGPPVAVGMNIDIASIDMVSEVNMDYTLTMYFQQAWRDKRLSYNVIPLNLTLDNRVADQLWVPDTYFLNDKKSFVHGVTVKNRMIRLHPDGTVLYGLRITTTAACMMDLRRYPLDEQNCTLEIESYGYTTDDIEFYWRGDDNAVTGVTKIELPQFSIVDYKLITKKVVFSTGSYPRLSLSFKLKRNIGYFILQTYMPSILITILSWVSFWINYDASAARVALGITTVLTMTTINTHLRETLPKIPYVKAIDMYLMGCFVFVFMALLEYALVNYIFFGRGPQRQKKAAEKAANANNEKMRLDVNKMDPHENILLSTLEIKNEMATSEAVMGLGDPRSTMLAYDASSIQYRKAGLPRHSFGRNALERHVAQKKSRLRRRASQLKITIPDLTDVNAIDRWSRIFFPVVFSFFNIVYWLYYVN
Sequence of GABAA α3β2γ2 (P18508 39-466): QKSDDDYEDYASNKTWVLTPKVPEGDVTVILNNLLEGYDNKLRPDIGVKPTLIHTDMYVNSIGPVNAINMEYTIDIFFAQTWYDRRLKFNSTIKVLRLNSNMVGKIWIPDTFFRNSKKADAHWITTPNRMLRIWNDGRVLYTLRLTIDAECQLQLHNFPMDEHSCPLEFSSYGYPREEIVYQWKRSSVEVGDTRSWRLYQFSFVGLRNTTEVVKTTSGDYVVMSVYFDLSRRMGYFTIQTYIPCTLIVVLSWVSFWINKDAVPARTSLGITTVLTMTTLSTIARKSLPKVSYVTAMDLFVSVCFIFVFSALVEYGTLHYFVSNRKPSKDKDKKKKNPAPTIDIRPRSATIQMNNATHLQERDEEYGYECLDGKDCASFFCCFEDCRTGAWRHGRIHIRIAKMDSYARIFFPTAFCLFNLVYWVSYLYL

Sequence of GABAA α3β3γ2 (P20236 29-493): as the sequence (P20236 29-493) above
Sequence of GABAA α3β3γ2 (P63079 26-473): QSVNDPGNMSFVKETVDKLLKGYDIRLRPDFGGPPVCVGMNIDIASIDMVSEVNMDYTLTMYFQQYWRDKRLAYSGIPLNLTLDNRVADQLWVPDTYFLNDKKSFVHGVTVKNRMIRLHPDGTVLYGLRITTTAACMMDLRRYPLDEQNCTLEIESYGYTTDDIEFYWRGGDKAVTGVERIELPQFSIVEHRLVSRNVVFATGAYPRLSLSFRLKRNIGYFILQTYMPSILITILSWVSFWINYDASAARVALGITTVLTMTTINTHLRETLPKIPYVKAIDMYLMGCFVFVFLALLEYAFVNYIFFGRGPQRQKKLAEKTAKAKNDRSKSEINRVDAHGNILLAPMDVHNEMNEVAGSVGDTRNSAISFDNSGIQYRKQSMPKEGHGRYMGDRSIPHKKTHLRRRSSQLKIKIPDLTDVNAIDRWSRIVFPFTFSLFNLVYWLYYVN
Sequence of GABAA α3β3γ2 (P18508 39-466): as the sequence (P18508 39-466) above

Consider `CCOC(=O)c1cc(NC(=O)N(c2ccccc2)c2ccccc2)c2c(Cl)cc(Cl)cc2n1` [DCUK-OEt, 5,7-dichloro-4-([diphenylcarbamoyl]amino) quinoline-2-ethyl carboxylate], for which the EC50 at GABAA α3β3γ2 was found to be 130 nM; at GABAA α3β2γ2 it was 380 nM.
